Experimental data from article PMC8148385, “A robust photoluminescence screening assay identifies uracil-DNA glycosylase inhibitors against prostate cancer” (Chemical Science, 2020).
Where two headings read alike, the source gives them in different places.

Assays:
[1] = molecular target: T1, uracil-DNA glycosylase (UDG) (Mus musculus, UniProt P97931); assay: CETSA in RM-1 cell lysates; format: cell-based
T1 construct: gene Ung; endogenous UDG in RM-1 cell lysates

[2] = molecular target: T2, uracil-DNA glycosylase (UDG) (Escherichia coli, UniProt P12295); assay: TRES G-quadruplex/iridium probe UDG activity assay with commercial UDG; also fluorescence thermal shift (ca. […] °C); format: biochemical
T2 construct: gene ung

[3] = molecular target: T2, uracil-DNA glycosylase (UDG); assay: as above; format: biochemical; remark: listed apart in the source

T2 sequence (P12295 2-229): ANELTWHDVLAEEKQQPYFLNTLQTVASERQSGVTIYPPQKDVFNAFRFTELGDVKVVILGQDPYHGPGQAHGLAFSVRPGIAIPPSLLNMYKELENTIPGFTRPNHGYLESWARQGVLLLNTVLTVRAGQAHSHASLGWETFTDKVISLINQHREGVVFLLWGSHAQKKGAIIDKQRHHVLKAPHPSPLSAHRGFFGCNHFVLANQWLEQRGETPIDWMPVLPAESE
T1 sequence (P97931 whole entry): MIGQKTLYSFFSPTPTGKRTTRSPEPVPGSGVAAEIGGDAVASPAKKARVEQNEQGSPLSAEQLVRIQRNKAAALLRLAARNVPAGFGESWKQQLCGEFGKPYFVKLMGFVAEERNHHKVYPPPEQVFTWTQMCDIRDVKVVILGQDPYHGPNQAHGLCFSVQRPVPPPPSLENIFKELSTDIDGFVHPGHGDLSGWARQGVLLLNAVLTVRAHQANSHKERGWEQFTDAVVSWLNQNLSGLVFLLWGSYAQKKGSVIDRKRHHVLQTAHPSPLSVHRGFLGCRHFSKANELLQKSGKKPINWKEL

| SMILES | CETSA in RM-1 cell lysates [1] | IC50 [2] [nM] | IC50 [3] [nM] |
| --- | --- | --- | --- |
| O=C(N/N=C/c1ccc([N+](=O)[O-])o1)c1ccc(O)cc1 [S13, nifuroxazide] | in the presence of compound A8 and S13, indicating that both of them directly engaged and stabilized UDG | ~4000 | – |
| O=[N+]([O-])c1ccc(S(=O)(=O)N2/C(=C\c3ccccc3)C(O)(c3ccccc3)c3ccccc32)cc1 (stereo not drawn) [A8] | – | – | 1900 |
